Measurements reported in ChEMBL document CHEMBL1649490, “First detection of plasmid-encoded blaOXY beta-lactamase” (2009).
≈ marks a conversion by molar mass, not a printed value.

Tests used:
Format in all cases: functional
Klebsiella pneumoniae [1] = experiment: Antimicrobial activity against Klebsiella pneumoniae 101A harboring beta-lactamase CMY-2 by Etest method
Klebsiella oxytoca [2] = experiment: Antimicrobial activity against Klebsiella oxytoca KO280 harboring beta-lactamase OXY-1 by Etest method
Klebsiella oxytoca [3] = experiment: Antimicrobial activity against Klebsiella oxytoca KO281 harboring beta-lactamase OXY-1 and CMY-2 by Etest method
Escherichia coli [4] = experiment: Antimicrobial activity against Escherichia coli DH5alpha by Etest method; conditions: DH5[alpha]
Klebsiella pneumoniae [5] = experiment: Antimicrobial activity against Klebsiella pneumoniae 278 harboring beta-lactamase OXY-1 by Etest method
Klebsiella oxytoca [6] = experiment: Antimicrobial activity against Klebsiella oxytoca KO279 harboring beta-lactamase OXY-1 by Etest method
Klebsiella pneumoniae [7] = experiment: Antimicrobial activity against Klebsiella pneumoniae 278sp by Etest method
Escherichia coli [8] = experiment: Antimicrobial activity against Escherichia coli TF-KO279 harboring beta-lactamase OXY-1 by Etest method
Escherichia coli [9] = experiment: Antimicrobial activity against Escherichia coli TF-KP278 harboring beta-lactamase OXY-1 by Etest method
Escherichia coli [10] = experiment: Antimicrobial activity against Escherichia coli TF-KO281 harboring beta-lactamase OXY-1 by Etest method

| SMILES | MIC (Klebsiella pneumoniae [1]) | MIC (Klebsiella oxytoca [2]) | MIC (Klebsiella oxytoca [3]) | MIC (Escherichia coli [4]) | MIC (Klebsiella pneumoniae [5]) | MIC (Klebsiella oxytoca [6]) | MIC (Klebsiella pneumoniae [7]) | MIC (Escherichia coli [8]) | MIC (Escherichia coli [9]) | MIC (Escherichia coli [10]) |
| --- | --- | --- | --- | --- | --- | --- | --- | --- | --- | --- |
| O=C(O)c1cn(C2CC2)c2cc(N3CCNCC3)c(F)cc2c1=O [CIPROFLOXACIN] | 0.047 µg/mL (≈ 0.142 µM) | 0.25 µg/mL (≈ 0.754 µM) | 0.38 µg/mL (≈ 1.15 µM) | 0.032 µg/mL (≈ 0.0966 µM) | 0.38 µg/mL (≈ 1.15 µM) | 0.38 µg/mL (≈ 1.15 µM) | 0.047 µg/mL (≈ 0.142 µM) | – | – | – |
| CO/N=C(\C(=O)N[C@@H]1C(=O)N2C(C(=O)O)=C(COC(C)=O)CS[C@H]12)c1csc(N)n1 [CEFOTAXIME] | 6 µg/mL (≈ 13.2 µM) | 1.5 µg/mL (≈ 3.29 µM) | 16 µg/mL (≈ 35.1 µM) | 0.023 µg/mL (≈ 0.0505 µM) | 1 µg/mL (≈ 2.2 µM) | 1.5 µg/mL (≈ 3.29 µM) | 0.047 µg/mL (≈ 0.103 µM) | 0.25 µg/mL (≈ 0.549 µM) | 0.25 µg/mL (≈ 0.549 µM) | 0.38 µg/mL (≈ 0.834 µM) |
| CC(C)(O/N=C(\C(=O)N[C@@H]1C(=O)N2C(C(=O)[O-])=C(C[n+]3ccccc3)CS[C@H]12)c1csc(N)n1)C(=O)O [CEFTAZIDIME] | 64 µg/mL (≈ 117 µM) | 4 µg/mL (≈ 7.32 µM) | ≥ 256 µg/mL | 0.25 µg/mL (≈ 0.457 µM) | 1.5 µg/mL (≈ 2.74 µM) | 4 µg/mL (≈ 7.32 µM) | 1 µg/mL (≈ 1.83 µM) | 0.75 µg/mL (≈ 1.37 µM) | 0.75 µg/mL (≈ 1.37 µM) | 1 µg/mL (≈ 1.83 µM) |
| CO/N=C(\C(=O)N[C@@H]1C(=O)N2C(C(=O)[O-])=C(C[N+]3(C)CCCC3)CS[C@H]12)c1csc(N)n1 [CEFEPIME] | 0.5 µg/mL (≈ 1.04 µM) | 1.5 µg/mL (≈ 3.12 µM) | 1.5 µg/mL (≈ 3.12 µM) | 0.032 µg/mL (≈ 0.0666 µM) | 1 µg/mL (≈ 2.08 µM) | 1.5 µg/mL (≈ 3.12 µM) | 0.19 µg/mL (≈ 0.395 µM) | – | – | 0.38 µg/mL (≈ 0.791 µM) |
| CO[C@@]1(NC(=O)Cc2cccs2)C(=O)N2C(C(=O)O)=C(COC(N)=O)CS[C@@H]21 [CEFOXITIN] | ≥ 256 µg/mL | 3 µg/mL (≈ 7.02 µM) | ≥ 256 µg/mL | 2 µg/mL (≈ 4.68 µM) | 4 µg/mL (≈ 9.36 µM) | 3 µg/mL (≈ 7.02 µM) | 4 µg/mL (≈ 9.36 µM) | 2 µg/mL (≈ 4.68 µM) | 2 µg/mL (≈ 4.68 µM) | 2 µg/mL (≈ 4.68 µM) |
| C[C@H]1[C@H](NC(=O)/C(=N\OC(C)(C)C(=O)O)c2csc(N)n2)C(=O)N1S(=O)(=O)O [AZTREONAM] | 6 µg/mL (≈ 13.8 µM) | ≥ 256 µg/mL | ≥ 256 µg/mL | 0.023 µg/mL (≈ 0.0528 µM) | 32 µg/mL (≈ 73.5 µM) | ≥ 256 µg/mL | 0.064 µg/mL (≈ 0.147 µM) | 64 µg/mL (≈ 147 µM) | 64 µg/mL (≈ 147 µM) | 128 µg/mL (≈ 294 µM) |
| CCn1cc(C(=O)O)c(=O)c2cc(F)c(N3CCNCC3)cc21 [NORFLOXACIN] | 0.125 µg/mL (≈ 0.391 µM) | 1 µg/mL (≈ 3.13 µM) | 1.5 µg/mL (≈ 4.7 µM) | 0.094 µg/mL (≈ 0.294 µM) | 1 µg/mL (≈ 3.13 µM) | 1.5 µg/mL (≈ 4.7 µM) | 0.125 µg/mL (≈ 0.391 µM) | 0.5 µg/mL (≈ 1.57 µM) | 0.38 µg/mL (≈ 1.19 µM) | 0.5 µg/mL (≈ 1.57 µM) |
| C[C@@H](O)[C@H]1C(=O)N2C(C(=O)O)=C(SCCNC=N)C[C@H]12 [IMIPENEM ANHYDROUS] | 0.38 µg/mL (≈ 1.27 µM) | 0.25 µg/mL (≈ 0.835 µM) | 0.25 µg/mL (≈ 0.835 µM) | 0.19 µg/mL (≈ 0.635 µM) | 0.25 µg/mL (≈ 0.835 µM) | 0.25 µg/mL (≈ 0.835 µM) | 0.25 µg/mL (≈ 0.835 µM) | 0.19 µg/mL (≈ 0.635 µM) | 0.19 µg/mL (≈ 0.635 µM) | 0.19 µg/mL (≈ 0.635 µM) |
| CC1(C)S[C@@H]2[C@H](NC(=O)[C@H](N)c3ccccc3)C(=O)N2[C@H]1C(=O)O [AMPICILLIN] | ≥ 256 µg/mL | ≥ 256 µg/mL | ≥ 256 µg/mL | 4 µg/mL (≈ 11.4 µM) | ≥ 256 µg/mL | ≥ 256 µg/mL | 96 µg/mL (≈ 275 µM) | ≥ 256 µg/mL | ≥ 256 µg/mL | ≥ 256 µg/mL |
